# Source: PubChem BioAssay (NCI)
#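 Where inhibition never reached the appropriate level, the endpoint shown equals the highest concentration tested. Otherwise, values were interpolated linearly from a five-concentration, 48-hour dose response in 96-well plates. TGI marks complete inhibition of growth.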
# Key:
# Test in all cases: growth of human tumour cells (NCI), 48 h
# [1] = test system: HCT-116 colon
# [2] = test system: KM20L2 colon
# [3] = test system: MALME-3M melanoma
# [4] = test system: NCI-H226 lung
# [5] = test system: NCI-H522 lung
# [6] = test system: OVCAR-3 ovarian
# [7] = test system: OVCAR-5 ovarian
# [8] = test system: OVCAR-8 ovarian
# [9] = test system: UACC-257 melanoma
# [10] = test system: NCI/ADR-RES ovarian
Compound,TGI [1] [µM],TGI [2] [µM],TGI [3] [µM],TGI [4] [µM],TGI [5] [µM],TGI [6] [µM],TGI [7] [µM],TGI [8] [µM],TGI [9] [µM],TGI [10] [µM]
COC(=O)/C(=N\N)C(C(=O)C(=O)Nc1nc(=S)[nH][nH]1)c1nc2ccc([N+](=O)[O-])cc2[nH]c1=O (stereo not drawn),> 100,> 100,> 100,> 100,> 100,> 100,> 100,> 100,> 100,
C/C=C1/C(=Cc2[nH]c(C=c3[nH]/c(=C/C4=NC(=O)C(CC)=C4C)c(C)c3CCC(=O)O)c(CCC(=O)O)c2C)NC(=O)C1C (stereo not drawn),> 50,> 50,31.9,10.8,39.7,> 50,27.4,5,24.9,
C/C(=N/N)c1sc(-c2nc(C)c(/C(C)=N\N)s2)nc1C,> 100,> 100,> 100,> 100,> 100,> 100,> 100,> 100,> 100,
COC1(C)CNCC(C)(C)NC(=O)C(C)(OC)CNCC(C)(C)NC1=O (stereo not drawn),> 100,> 100,> 100,> 100,> 100,> 100,> 100,> 100,> 100,
CCCCCCCCCCCCCCCCCCOCC(O)CO (stereo not drawn),> 25,> 25,> 21.1,> 24.2,20.9,> 25,> 25,> 25,> 25,> 25
COc1cc2cnc3c4cc(OC)c(OC(C)C)cc4ccc3c2cc1OC,> 100,> 100,> 100,> 100,> 100,> 100,> 100,> 100,> 100,
CCc1cccc(NC(=O)c2cc(/C=C/c3ccccc3)[nH]c(=S)n2)c1,> 100,> 100,> 100,> 100,> 100,> 100,> 100,> 100,> 100,
CC(=O)OCC1=CC2CCC3C(C)(CCC[C@]3(C)COC(C)=O)C23CC[C@H]1C3 (stereo partly drawn),> 100,> 100,> 100,> 100,45.4,> 100,> 100,> 100,> 100,
O=C(NCc1ccccc1)C1C(=O)C(=O)N(Cc2ccccc2)C1=O (stereo not drawn),> 100,> 100,> 100,> 100,> 100,> 100,> 100,> 100,> 100,
CC1OC(CC2C=CCc3c(O)c4c(c(O)c32)C(=O)c2ccccc2C4=O)CC(NC(=O)C(F)(F)F)C1O (stereo not drawn),11.4,55.3,10.1,31.6,44.9,19.2,> 100,15,26.8,
N#CCC(=O)Nc1ccccc1O,> 100,> 100,> 100,> 100,> 100,> 100,> 100,> 100,> 100,
COC(=O)C(C#N)C1NC(=O)c2ccccc21 (stereo not drawn),> 100,> 100,> 100,> 100,> 100,> 100,> 100,> 100,> 100,
CC(O)C1OC(n2ccc(=O)[nH]c2=O)CC1n1cncn1 (stereo not drawn),> 100,> 100,> 100,> 100,> 100,> 100,> 100,> 100,> 100,
